Reference: patent publication US6426061B1, “Method and composition for preventing sweat-related odor” (priority 2001, dated 2002)

Legend:
androgen receptor = details: prostate cancer cells; cited from earlier work
apo D = details: cited from earlier work
[1] = test system: underarm odor, axillae skin of a panel of human subjects; test: Deodorant value test (modified): underarm odor scored 0-5 by three assessors every 24 h; type: in vivo; details: Example 2; single solution on one axilla versus vehicle on the other; compared with 8.2% aluminum chlorohydrate and 0.4% chlorhexidine digluconate
Excerpt: A test for the deodorant effects of monensin or resveratrol alone was first carried out. The positive controls were 8.2% aluminum chlorohydrate, a level that is used in most deodorant or antiperspirant products on the market and 0.4% chlorhexidine digluconate, a level that is usually used for bacterial killing. The negative control was a vehicle consisting of 60% ethanol and 40% water. Three experienced underarm odor assessors who are able to correctly rank the odor intensities based on the deodorant value test system U.S. Pat. No. 4,278,658) performed odor assessments. I)odorant assessment scores were recorded according to the inalodor category scale, when applied directly to the axillae skin of a panel of human subjects.
The test described in deodorant value test system has been modified by measuring odor intensity every 24 hours after treatment until odor intensity is detectable (score 1 or up) on a 0-5 score instead of just 24 hours after treatment.
In this test, twenty subjects selected by experienced odor assessors have an average odor score of 3.5 (range from score 3-5). To prevent any any-over effects from occurring, all of subjects have not used any underarm products before test for at least 10 days. […] At 24 hour intervals, each subject was evaluated for underarm odor by averaging the score of the three assessors until odor in test groups was detectable (score 1 or up). […]

Row | SMILES | effect on expression and function of the androgen receptor (androgen receptor) | effect on secretion of apo D from cells (apo D) | effectiveness in preventing underarm odor (deodorant effect, FIG. 1) [1]
1 | Oc1ccc(C=Cc2cc(O)cc(O)c2)cc1 [Resveratrol, resveratrol] | inhibit the expression and function of the androgen receptor |  | 
2 | CC[C@@]1([C@@H]2O[C@@H]([C@H]3O[C@@](O)(CO)[C@H](C)C[C@@H]3C)C[C@@H]2C)CC[C@H]([C@]2(C)CC[C@]3(C[C@H](O)[C@@H](C)[C@@H]([C@@H](C)[C@@H](OC)[C@H](C)C(=O)O)O3)O2)O1 [monensin] |  | decreases secretion of apo D from cells | more effective in preventing underarm odor than the positive control products
